The values that follow come from US7598244B2, “[1,2,4]triazolo[1,5,a]pyrimidin-2-ylurea derivative and use thereof” (Nippon Kayaku Kabushiki Kaisha, priority 2003, dated 2009).

Assay [1] deals with MHC class I molecules of T1 cells (human lymphoma cell line 174×CEM.). The experiment in a line: Effect on expression of MHC class I from T1 cells (flow cytometry, MFI). Type of assay: cell-based. The following applies: 3 days culture. In a few lines: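 EC20 is the compound level that lowers MHC class I MFI by 20% relative to compound-free cultures. Read-out was flow cytometry after FITC W6/32 staining.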

For assay [2], the system named is MHC class I molecules of human peripheral blood-derived dendritic cells. In words: Effect on expression of MHC class I molecules from human peripheral blood-derived dendritic cells. Format: cell-based. The following applies: dendritic cells matured with TNF-α, 3 days; read-out: EC50 (reduction of 50% of the number of cells wherein MHC class I molecules were highly expressed). In a few lines:
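Human blood CD14+ monocytes differentiated 7 days with GM-CSF 500 U/ml and IL-4 50 ng/ml into immature dendritic cells. These were matured with 100 U/ml TNF-α plus test compound for 3 days at 37 °C. MHC class I-high fraction measured by flow cytometry (W6/32 antibody); EC50 is concentration giving 50% reduction versus untreated.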

Assay [3] concerns human dendritic cells cultured with human allogenic T cells. In words: Effect on the ability of human dendritic cells to induce the growth of allogenic T cells ([3H]-thymidine incorporation). Format: cell-based. The following applies: Homo sapiens; dendritic cells treated 3 days with test compound and TNF-α, then 5 days with allogenic T cells; read-out: IC50 (inhibition of DNA synthesis of lymphocytes). In a few lines:
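Immature human dendritic cells matured 3 days with compound plus TNF-α, then co-cultured with allogeneic T cells (2.5×10^3 DC : 2.0×10^5 T per well) for 5 days at 37 °C, 5% CO2. [3H]-thymidine added for the final 16 h; incorporation counted, inhibition versus compound-free cultures, IC50 derived.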

The next assay has as its system BALB/c mice. The experiment in a line: Effect on mouse plaque forming cells (PFCs) to sheep erythrocytes. As to conditions: Oral, 50 mg/kg/single administration, twice a day for 4 days. Format: in vivo. How it is done: Effect on Mouse Plaque Forming Cells (PFCs)
Sheep erythrocytes (Nippon Seibutsu Zairyo Center, Co., Ltd.) were intraperitoneally administered to each of BALB/c mice (Charles River Japan, Inc.; female; 8-week-old) at an amount of 1.0×10^8 cells. Thereafter, a test compound was administered thereto twice a day for 4 days after the first administration (only once on the first day) (n=4). On the day subsequent to completion of the administration of the test compound, splenic cells were prepared from the mouse, and the number of PFCs to the sheep erythrocytes was counted by the method of Cunninham (Cunninham, A. J. et al., Immunology, vol. 14, p. 599 (1968)). The number of PFCs per number of splenic cells of 1.0×10^6 was obtained. The reduction rate of the number of PFC in the mouse to which the test compound had been administered, to the number of PFCs in a control mouse to which the test compound had not been administered but only a solvent had been administered, was calculated using the following formula (4).
[formula] • Eexp: The number of PFCs per 1×10^6 splenic cells of mouse to which test compound was administered • Cexp: The number of PFCs per 1×10^6 splenic cells of mouse to which solvent was administered

As to `CC(C)NC(=O)Nc1nc2nccc(-c3cccs3)n2n1` [Example 029, 1-isopropyl-3-(7-thiophen-2-yl[1,2,4]triazolo[1,5-a]pyrimidin-2-yl)urea], in assay [1], the “EC20 (concentration necessary for suppressing 20% of the expression level of MHC class I molecules)” value was 0.234 µM. Moreover, in assay [2], the EC50 was found to be 0.48 µM. Besides, the IC50 in assay [3] was 3.48 µM. The “Reduction rate (%) of number of PFCs” value in the assay on BALB/c mice turned out to be 49.3%.

A word on the EC50: it is the concentration needed to bring the measured effect to its halfway point. For orientation: IC50 means the concentration at which inhibition is half-maximal.
